Measurements: patent publication US5134150A, “Inhibition of the 5-lipoxygenase pathway” (priority 1989, dated 1992)
“Also recorded” adds a separate entry of the source.

Legend:
[1] = system: 5-lipoxygenase and LTA4 synthetase; assay: Di-HETE / LTB4 production by high speed supernatant of RBL-1 cells; type: biochemical
Procedure: For in vitro experiments, compounds were dissolved at appropriate concentrations in ethanol or DMSO (dimethylsulfoxide) (final concentration≤1.0%) and then diluted to final concentrations using the buffers indicated in the text.
The activities of these enzymes in extracts of RBL-1 cells were assayed using the method of Jakschik and Lee, Nature, 287, 51-52 (1980). RBL-1 cells were obtained from the American Type Culture Collection (#CRL 1378) and were grown at 37° C. (5% CO2 in air) in spinner culture in MEM supplemented with 10% heat inactivated fetal calf serum. Harvested cells were washed with 50 mM sodium phosphate buffer, pH 7.0, containing 1 mM EDTA and 0.1% gelatin, resuspended in fresh buffer (5×10^7 cells/ml) and disrupted by nitrogen cavitation using the Parr bomb at 750 psi for 10 min. The broken cell extract was then centrifuged at 10,000× g for 20 minutes (min) and the supernatant centrifuged at 100,000 xIg for 60 min. Aliquots (0.25 mls) of the supernatant were preincubated with or without drugs for 10 min, after which 10 μl CaCl2 (50 mM) was added and the reaction was initiated with 2.5 μl of 2.5 mM arachidonic acid-1-^14 C (final concentration was 25 μM; specific activity 20,000 dpm/nmole). After incubation for 3 min at 37° C., the reaction was terminated by addition of 2 volumes (0.5 ml) ice cold acetone and the sample was allowed to deproteinize on ice for 10 min prior to centrifugation at 1,000× g for 10 min. The deproteinized supernatant was adjusted to pH 3.5 with 2N formic acid and extracted with 2 volumes of ice cold ethyl acetate. The extracted samples were dried under argon, redissolved in ethyl acetate and applied to Whatman LK5D thin layer chromatography (TLC) plates which were developed using the A-9 solvent system [organic phase of ethyl acetate: 2,2,5-trimethylpentane:acetic acid: water (110:50:20:10)] described by Hamberg and Samuelsson, J. Biol. Chem., 241, 257-263 (1966). Arachidonic acid, 5-HETE, LTB4 and PGD2 were quantified with a Berthold LB 2832 autoscanner.
The 5-lipoxygenase and LTA4 synthetase activities were further studied under the following conditions. An additional centrifugation of the RBL-1 supernatant was run at 100,000× g for 60 min, to remove the particulate cyclooxygenase activity. Sample incubation was done under conditions similar to those described above, i.e., 2 mM CaCl2 and […] arachidonic acid-1-^14 C, however, with an incubation time of 5 min at 5° C. Under these conditions, only the 5-lipoxygenase pathway metabolites were detectable. The 5-HETE and di-HETEs were formed at a linear rate, and substantial amounts of the arachidonic acid-1-^14 C substrate were utilized.

[2] = system: Infiltration of Polymorphonuclear Leukocytes into Sites of Carrageenan-Induced Inflammation; assay: Mouse carrageenan peritonitis (PMN infiltration); type: in vivo, mouse (male Balb/c); conditions: for PMN infiltration, result in words: carrageenan peritonitis, mice
[3] = system: Arachidonic Acid-Induced Rat Paw Edema; assay: Arachidonic acid-induced rat paw swelling; type: in vivo, rat (male Lewis)
Source text: (§1) In the following Examples where mice were used, they were male Balb/c mice (20-28 g), and where rats were used, they were male Lewis rats (180-210 g). All mice and rats were obtained from Charles River Breeding Laboratories, Kingston, N.Y. Within a single experiment, mice and rats were sex and age matched.
Auranofin, phenidone, indomethacin, naproxen, and ibuprofen were each used as the free base. The compounds of Formula (I) were used either as the free base or in the appropriate salt form. Levamisole was used as the hydrochloride salt. The compounds were homogenized in 0.5% tragacanth. Compounds were administered by gavage at the indicated dose in a final volume of 10 ml/kg. Nordihydroguaiaretic acid (NDGA) was solubilized in dimethylacetamide and diluted with olive oil for subcutaneous administration.
After determining pretreatment paw volumes by plethysmography by the method of Webb and Griswold, J. Pharmacol. Methods, 12, 149-153 (1984), rats were given test compound or vehicle one hour prior to the subplantar injection of 0.1 ml of 1 mg/ml arachidonic acid. Paw volumes were then remeasured and compared to pretreatment values and the increase in paw volume was expressed as mean values ± S.D.

[4] = system: Arachidonic Acid-Induced Cellular Infiltration into the Rat Air Pouch; assay: Arachidonic acid-induced air pouch inflammation; type: in vivo, rat (male Lewis); conditions: for Cell infiltration into arachidonic acid air pouch, result in words: rat, in vivo
Source text: as §1
(§2) The compounds of Formula (I) were used either as the free base or in the appropriate salt form. Levamisole was used as the hydrochloride salt. The compounds were homogenized in 0.5% tragacanth. Compounds were administered by gavage at the indicated dose in a final volume of 10 ml/kg. Nordihydroguaiaretic acid (NDGA) was solubilized in dimethylacetamide and diluted with olive oil for subcutaneous administration.
(§3) Rats were shaved on the dorsal flank, and then injected subcutaneously one day later with 20 ml of air to form a defined pouch, by the method of Sedgwick et al., J. Pathology, 141, 483-495 (1983). The air pouch was reinflated as necessary over the next 6 days. To assay anti-inflammatory activity, animals were treated orally with test compound or vehicle (10 ml/kg) one hour before injection of 2.0 ml of a 2.0% carrageenan suspension containing […] penicillin and 100 µg/ml streptomycin into the air pouch. In other experiments, 5 ml of 0.1% arachidonic acid in 0.2M bicarbonate buffer was injected two hours after drug treatment. Animals were sacrificed using CO2 three hours after instillation of irritant. The exudate was then aspirated from the pouch and neutrophil count and differential cell count were measured.

[5] = system: Carrageenan-Induced Cellular Infiltration into the Rat Air Pouch; assay: Carrageenan-induced air pouch inflammation; type: in vivo, rat (male Lewis); conditions: for Cell infiltration into carrageenan air pouch, result in words: rat, in vivo
Source text: as §1, §2, §3

[6] = 5 mg/kg, 2 hours post arachidonic acid

SMILES: Fc1ccc(-c2nc3n(c2-c2ccncc2)CCS3)cc1 [Compound 1]
- Di-HETE ([1]; 1 μM): 1.56 ± 0.06 nM/ml
- Di-HETE ([1]; 3.3 μM): 1.34 ± 0.12 nM/ml
- Di-HETE ([1]; 10 μM): 0.88 ± 0.21 nM/ml
- Di-HETE ([1]; 33 μM): 0.40 ± 0.08 nM/ml
- Di-HETE ([1]; 100 μM): 0.03 ± 0.04 nM/ml
- IC50 ([1]; soluble extract of RBL-1 cells containing only lipoxygenase activity, read-out: IC50, eicosanoid formation (LTB4 production)): 7.5 µM
- PMN infiltration, result in words [2]: reduced dramatically
- Change in Paw Volume ([3]; 100 mg/kg, 2 hours post arachidonic acid): 0.06 ± 0.05 mL
- Rat paw inflammatory response, result in words ([3]; rat, in vivo): inhibited significantly
- Cellular Infiltrate MN ([4]; 100 mg/kg): 1.5 ± 1.1 Total × 10^-6
- Cellular Infiltrate PMN ([4]; 100 mg/kg): 1.2 ± 0.7 Total × 10^-6
- Exudate Volume ([4]; 100 mg/kg): 2.6 ± 0.8 mL
- Cell infiltration into arachidonic acid air pouch, result in words [4]: significantly reduced PMN and mononuclear cell infiltration
- Cellular Infiltrate MN ([5]; 100 mg/kg): 5.5 ± 3.8 Total × 10^-6
- Cellular Infiltrate PMN ([5]; 100 mg/kg): 2.6 ± 1.3 Total × 10^-6
- Exudate Volume ([5]; 100 mg/kg): 1.0 ± 0.9 mL
- Cell infiltration into carrageenan air pouch, result in words [5]: significant inhibition of polymorphonuclear leukocyte infiltration

SMILES: COc1ccc2c(c1)c(CC(=O)O)c(C)n2C(=O)c1ccc(Cl)cc1 [Indomethacin]
- Inhibition of eicosanoid formation / LTB4, result in words ([1]; indomethacin: concentrations up to 10^-4 M): inactive
- % Change (PMN) ([2]; 10 mg/kg, p.o., Table 3): -12%
- PMN (Mean ± S.D.) ([2]; 10 mg/kg, p.o., Table 3): 8.20 ± 2.65 × 10^-5 /ml
- PMN infiltration, result in words [2]: did not impair inflammatory cell infiltration
- % Inhibition (paw volume) [3, 6]: 0%
- Change in Paw Volume [3, 6]: 0.29 ± 0.06 mL
- Cellular Infiltrate MN ([4]; 5 mg/kg): 7.0 ± 6.4 Total × 10^-6
- Cellular Infiltrate PMN ([4]; 5 mg/kg): 5.0 ± 3.8 Total × 10^-6
- Exudate Volume ([4]; 5 mg/kg): 2.5 ± 0.8 mL
- Cell infiltration into arachidonic acid air pouch, result in words [4]: did not reduce inflammation or cell infiltration; also recorded: no significant effect on cell infiltration
- Cellular Infiltrate MN ([5]; 5 mg/kg): 4.0 ± 0.8 Total × 10^-6
- Cellular Infiltrate PMN ([5]; 5 mg/kg): 2.8 ± 0.7 Total × 10^-6
- Exudate Volume ([5]; 5 mg/kg): 2.0 ± 0.5 mL
- Cell infiltration into carrageenan air pouch, result in words [5]: reduction in the PMN count and the PMN:mononuclear cell ratio
